In patent US10869899B2, “Isolated cells and populations comprising same for the treatment of CNS diseases” (Ramot at Tel-Aviv University Ltd., priority 2005, dated 2020):

Test system: differentiated hBMSc
Test: Effect of IL-1β and cabergoline on GDNF production and secretion (ELISA)
Assay type: cell-based, human
Conditions: cabergoline 130 pg/ml, IL-1β 100 pg/ml, added 24 hours after initiation of differentiation, 48 hours
Experimental: Astrocyte differentiation: To induce astrocyte differentiation, 1×10^6 cells were cultured in […]. Cells were replaced with pre-differentiation medium for 48 hours (DMEM supplemented with SPN, 2 mM L-glutamine, 20 ng/ml human epidermal growth factor hEGF (R& D, Systems, Minneapolis, Minn.), 20 ng/ml human basic fibroblast growth factor (hbFGF) and N2 supplement (insulin 5 μg/ml, progesterone 20 nM, putrescin 100 μM, selenium 30 nM, transferrin 100 μg/ml). After 48 hours, the pre-differentiation medium was changed to differentiation medium, (DMEM supplemented with SPN, 2 mM L-glutamine, 1 mM dibutyryl cyclic AMP dbcAMP, 0.5 mM isobutylmethylxanthine IBMX (Sigma-Aldrich, St. Louis, Mo., USA), 5 ng/ml human platelet derived growth factor PDGF (peprotech), and 50 ng/ml human neuregulin 1-β1 NRG1-β1-GGF-2). […]
GDNF and BDNF analysis: At the end of the differentiating procedure described above, supernatant was collected from the plate and cells were harvested and counted. The amount of GDNF or BDNF in the cell's lysate and culture supernatants was quantified by using a GDNF or BDNF ImmunoAssay System (Promega) according to the manufacture's protocol. The absorbance at 450 nm was recorded on the Microplate Reader (BioRad Model 550) and the values were used to produce the curve of the GDNF or BDNF standard. […] ELISA results were calculated according to 10^6 cells per plate.

| Molecule | production and secretion of GDNF by differentiated cells following addition |
| --- | --- |
| C=CCN1C[C@H](C(=O)N(CCCN(C)C)C(=O)NCC)C[C@@H]2c3cccc4[nH]cc(c34)C[C@H]21 [cabergoline] | marked enhanced production and secretion of GDNF |
| IL-1beta: factor known to upregulate GDNF, added to the differentiation medium | marked enhanced production and secretion of GDNF |
